# Results from PMC11576293, “New series of 4,6-diaryl pyrimidines: facile synthesis and antiproliferative activity as dual EGFR/VEGFR-2 inhibitors” (Frontiers in Chemistry, 2024).
# Tests used:
# Assay in all cases: NCI-60 single-dose screen
# Type in all cases: cell-based
# KM12 = conditions: Homo sapiens, single dose 10 µM, '-' = no inhibition, read-out: % Growth Inhibition
# Method in brief: (§1)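 NCI Developmental Therapeutics Program screen across 60 human cancer cell lines from nine tumor types; compounds tested at a single dose of 10 μM.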
# RPMI-8226 = conditions: Homo sapiens, single dose 10 µM, '-' = no inhibition, read-out: % Growth Inhibition
# Method in brief: as §1
# OVCAR-4 = conditions: Homo sapiens, single dose 10 µM, '-' = no inhibition, read-out: % Growth Inhibition
# Method in brief: as §1
# CAKI-1 = conditions: Homo sapiens, single dose 10 µM, '-' = no inhibition, read-out: % Growth Inhibition
# Method in brief: as §1
# MALME-3M = conditions: Homo sapiens, single dose 10 µM, '-' = no inhibition, read-out: % Growth Inhibition
# Method in brief: as §1
# SK-OV-3 = conditions: Homo sapiens, single dose 10 µM, '-' = no inhibition, read-out: % Growth Inhibition
# Method in brief: as §1
# COLO 205 = conditions: Homo sapiens, single dose 10 µM, '-' = no inhibition, read-out: % Growth Inhibition
# Method in brief: as §1
# SNB-19 = conditions: Homo sapiens, single dose 10 µM, '-' = no inhibition, read-out: % Growth Inhibition
# Method in brief: as §1
# EKVX = conditions: Homo sapiens, single dose 10 µM, '-' = no inhibition, read-out: % Growth Inhibition
# Method in brief: as §1
# SF-295 = conditions: Homo sapiens, single dose 10 µM, '-' = no inhibition, read-out: % Growth Inhibition
# Method in brief: as §1
# DU-145 = conditions: Homo sapiens, single dose 10 µM, '-' = no inhibition, read-out: % Growth Inhibition
# Method in brief: as §1
# SR = conditions: Homo sapiens, single dose 10 µM, '-' = no inhibition, read-out: % Growth Inhibition
# Method in brief: as §1
# M14 = conditions: Homo sapiens, single dose 10 µM, '-' = no inhibition, read-out: % Growth Inhibition
# Method in brief: as §1
# OVCAR-5 = conditions: Homo sapiens, single dose 10 µM, '-' = no inhibition, read-out: % Growth Inhibition
# Method in brief: as §1
# MOLT-4 = conditions: Homo sapiens, single dose 10 µM, '-' = no inhibition, read-out: % Growth Inhibition
# Method in brief: as §1
# HOP-62 = conditions: Homo sapiens, single dose 10 µM, '-' = no inhibition, read-out: % Growth Inhibition
# Method in brief: as §1
# ACHN 1 = conditions: Homo sapiens, single dose 10 µM, '-' = no inhibition, read-out: % Growth Inhibition
# Method in brief: as §1
# LOX IMVI = conditions: Homo sapiens, single dose 10 µM, '-' = no inhibition, read-out: % Growth Inhibition
# Method in brief: as §1
# IGROV1 = conditions: Homo sapiens, IGROV-1, single dose 10 µM, '-' = no inhibition, read-out: % Growth Inhibition
# Method in brief: as §1
# UACC-257 = conditions: Homo sapiens, single dose 10 µM, '-' = no inhibition, read-out: % Growth Inhibition
# Method in brief: as §1
# SK-MEL-28 = conditions: Homo sapiens, single dose 10 µM, '-' = no inhibition, read-out: % Growth Inhibition
# Method in brief: as §1
# 786-0 = conditions: Homo sapiens, single dose 10 µM, '-' = no inhibition, read-out: % Growth Inhibition
# Method in brief: as §1
# U251 = conditions: Homo sapiens, U-251, single dose 10 µM, '-' = no inhibition, read-out: % Growth Inhibition
# Method in brief: as §1
# PC-3 = conditions: Homo sapiens, single dose 10 µM, '-' = no inhibition, read-out: % Growth Inhibition
# Method in brief: as §1
# A549/ATCC = conditions: Homo sapiens, single dose 10 µM, '-' = no inhibition, read-out: % Growth Inhibition
# Method in brief: as §1
# T-47D = conditions: Homo sapiens, T47D, single dose 10 µM, '-' = no inhibition, read-out: % Growth Inhibition
# Method in brief: as §1
# SF-539 = conditions: Homo sapiens, single dose 10 µM, '-' = no inhibition, read-out: % Growth Inhibition
# Method in brief: as §1
# OVCAR-3 = conditions: Homo sapiens, single dose 10 µM, '-' = no inhibition, read-out: % Growth Inhibition
# Method in brief: as §1
# NCI-H460 = conditions: Homo sapiens, single dose 10 µM, '-' = no inhibition, read-out: % Growth Inhibition
# Method in brief: as §1
# NCI-H522 = conditions: Homo sapiens, single dose 10 µM, '-' = no inhibition, read-out: % Growth Inhibition
# Method in brief: as §1
# SNB-75 = conditions: Homo sapiens, single dose 10 µM, '-' = no inhibition, read-out: % Growth Inhibition
# Method in brief: as §1
# UO-31 = conditions: Homo sapiens, single dose 10 µM, '-' = no inhibition, read-out: % Growth Inhibition
# Method in brief: as §1
# SW-620 = conditions: Homo sapiens, single dose 10 µM, '-' = no inhibition, read-out: % Growth Inhibition
# Method in brief: as §1
# MDA-MB231/ATCC = conditions: Homo sapiens, MDA-MB-231, single dose 10 µM, '-' = no inhibition, read-out: % Growth Inhibition
# Method in brief: as §1
# HCT-15 = conditions: Homo sapiens, single dose 10 µM, '-' = no inhibition, read-out: % Growth Inhibition
# Method in brief: as §1
# HT29 = conditions: Homo sapiens, HT-29, single dose 10 µM, '-' = no inhibition, read-out: % Growth Inhibition
# Method in brief: as §1
# RXF 393 = conditions: Homo sapiens, single dose 10 µM, '-' = no inhibition, read-out: % Growth Inhibition
# Method in brief: as §1
# BT-549 = conditions: Homo sapiens, single dose 10 µM, '-' = no inhibition, read-out: % Growth Inhibition
# Method in brief: as §1
# MDA-MB-468 = conditions: Homo sapiens, single dose 10 µM, '-' = no inhibition, read-out: % Growth Inhibition
# Method in brief: as §1
# NCI-H322M = conditions: Homo sapiens, single dose 10 µM, '-' = no inhibition, read-out: % Growth Inhibition
# Method in brief: as §1
# NCI-H23 = conditions: Homo sapiens, single dose 10 µM, '-' = no inhibition, read-out: % Growth Inhibition
# Method in brief: as §1
# HOP-92 = conditions: Homo sapiens, single dose 10 µM, '-' = no inhibition, read-out: % Growth Inhibition
# Method in brief: as §1
# HL-60(TB) = conditions: Homo sapiens, single dose 10 µM, '-' = no inhibition, read-out: % Growth Inhibition
# NCI/ADR-RES = conditions: Homo sapiens, single dose 10 µM, '-' = no inhibition, read-out: % Growth Inhibition
# Method in brief: as §1
# A498 = conditions: Homo sapiens, single dose 10 µM, '-' = no inhibition, read-out: % Growth Inhibition
# Method in brief: as §1
# UACC-62 = conditions: Homo sapiens, single dose 10 µM, '-' = no inhibition, read-out: % Growth Inhibition
# Method in brief: as §1
# TK-10 = conditions: Homo sapiens, single dose 10 µM, '-' = no inhibition, read-out: % Growth Inhibition
# Method in brief: as §1
smiles,measurement,setting,value
"COc1ccc(-c2cc(-c3ccc(Cl)cc3)nc(SC(C)C)n2)cc1 [Compound 12, 4-(4-Chlorophenyl)-2-(isopropylthio)-6-(4-methoxyphenyl)pyrimidine]",inhibition at 10 µM,KM12,9.45%
same,inhibition at 10 µM,RPMI-8226,26.7%
same,inhibition at 10 µM,OVCAR-4,11.8%
same,inhibition at 10 µM,CAKI-1,14.1%
same,inhibition at 10 µM,MALME-3M,1.51%
same,inhibition at 10 µM,SK-OV-3,< 0%
same,inhibition at 10 µM,COLO 205,< 0%
same,inhibition at 10 µM,SNB-19,1.49%
same,inhibition at 10 µM,EKVX,16.8%
same,inhibition at 10 µM,SF-295,4.52%
same,inhibition at 10 µM,DU-145,14.7%
same,inhibition at 10 µM,SR,47.1%
same,inhibition at 10 µM,M14,8.46%
same,inhibition at 10 µM,OVCAR-5,< 0%
same,inhibition at 10 µM,MOLT-4,29.9%
same,inhibition at 10 µM,HOP-62,< 0%
same,inhibition at 10 µM,ACHN 1,< 0%
same,inhibition at 10 µM,LOX IMVI,13.6%
same,inhibition at 10 µM,IGROV1,< 0%
same,inhibition at 10 µM,UACC-257,4.1%
same,inhibition at 10 µM,SK-MEL-28,< 0%
same,inhibition at 10 µM,786-0,7.48%
same,inhibition at 10 µM,U251,7.59%
same,inhibition at 10 µM,PC-3,2.88%
same,inhibition at 10 µM,A549/ATCC,15.9%
same,inhibition at 10 µM,T-47D,40.4%
same,inhibition at 10 µM,SF-539,6.88%
same,inhibition at 10 µM,OVCAR-3,< 0%
same,inhibition at 10 µM,NCI-H460,7.21%
same,inhibition at 10 µM,NCI-H522,21.6%
same,inhibition at 10 µM,SNB-75,< 0%
same,inhibition at 10 µM,UO-31,15.7%
same,inhibition at 10 µM,SW-620,5.57%
same,inhibition at 10 µM,MDA-MB231/ATCC,4.87%
same,inhibition at 10 µM,HCT-15,38.7%
same,inhibition at 10 µM,HT29,29.2%
same,inhibition at 10 µM,RXF 393,26.4%
same,inhibition at 10 µM,BT-549,2.74%
same,inhibition at 10 µM,MDA-MB-468,35.1%
same,inhibition at 10 µM,NCI-H322M,4.22%
same,inhibition at 10 µM,NCI-H23,10.7%
same,inhibition at 10 µM,HOP-92,< 0%
same,inhibition at 10 µM,HL-60(TB),32.6%
same,inhibition at 10 µM,NCI/ADR-RES,11.2%
same,inhibition at 10 µM,A498,< 0%
same,inhibition at 10 µM,UACC-62,19.1%
same,inhibition at 10 µM,TK-10,< 0%
"C=CCSc1nc(-c2ccc(Cl)cc2)cc(-c2ccc(OC)cc2)n1 [Compound 13, 2-(Allylthio)-4-(4-chlorophenyl)-6-(4-methoxyphenyl)pyrimidine]",inhibition at 10 µM,KM12,0.8%
same,inhibition at 10 µM,RPMI-8226,4.91%
same,inhibition at 10 µM,OVCAR-4,12.1%
same,inhibition at 10 µM,CAKI-1,14.8%
same,inhibition at 10 µM,MALME-3M,< 0%
same,inhibition at 10 µM,SK-OV-3,< 0%
same,inhibition at 10 µM,COLO 205,< 0%
same,inhibition at 10 µM,SNB-19,6.79%
same,inhibition at 10 µM,EKVX,2.11%
same,inhibition at 10 µM,SF-295,1.47%
same,inhibition at 10 µM,DU-145,1.02%
same,inhibition at 10 µM,SR,19.9%
same,inhibition at 10 µM,M14,4.04%
same,inhibition at 10 µM,OVCAR-5,< 0%
same,inhibition at 10 µM,MOLT-4,14.3%
same,inhibition at 10 µM,HOP-62,< 0%
same,inhibition at 10 µM,ACHN 1,< 0%
same,inhibition at 10 µM,LOX IMVI,4.72%
same,inhibition at 10 µM,IGROV1,< 0%
same,inhibition at 10 µM,UACC-257,< 0%
same,inhibition at 10 µM,SK-MEL-28,< 0%
same,inhibition at 10 µM,786-0,3.01%
same,inhibition at 10 µM,U251,< 0%
same,inhibition at 10 µM,PC-3,1.15%
same,inhibition at 10 µM,A549/ATCC,< 0%
same,inhibition at 10 µM,T-47D,18.4%
same,inhibition at 10 µM,SF-539,< 0%
same,inhibition at 10 µM,OVCAR-3,< 0%
same,inhibition at 10 µM,NCI-H460,0.1%
same,inhibition at 10 µM,NCI-H522,10.2%
same,inhibition at 10 µM,SNB-75,< 0%
same,inhibition at 10 µM,UO-31,18.9%
same,inhibition at 10 µM,SW-620,< 0%
same,inhibition at 10 µM,MDA-MB231/ATCC,< 0%
same,inhibition at 10 µM,HCT-15,7.93%
same,inhibition at 10 µM,HT29,17.2%
same,inhibition at 10 µM,RXF 393,0.35%
same,inhibition at 10 µM,BT-549,< 0%
same,inhibition at 10 µM,MDA-MB-468,16.2%
same,inhibition at 10 µM,NCI-H322M,0.59%
same,inhibition at 10 µM,NCI-H23,3.36%
same,inhibition at 10 µM,HOP-92,< 0%
same,inhibition at 10 µM,HL-60(TB),26.8%
same,inhibition at 10 µM,NCI/ADR-RES,6.28%
same,inhibition at 10 µM,A498,< 0%
same,inhibition at 10 µM,UACC-62,26.2%
same,inhibition at 10 µM,TK-10,< 0%
